# Laboratory results from EPA's ToxValDB 9.5 (doi:10.2903/j.efsa.2010.1704).
# Columns and labels:
# Typhlodromus pyri = settings: acute; duration: 7 days; mortality
# Colinus virginianus = settings: acute, oral, mortality
# Apis mellifera = settings: acute; duration: 48 hours; oral; unspecified; mortality
# Anas platyrhynchos = settings: oral, mortality
# Canidae = settings: oral, Dog Other, organ weight
# Pimephales promelas = settings: chronic/long-term; duration: 35 days; growth
# Daphnia magna = settings: chronic/long-term; duration: 21 days; reproduction
# Oryctolagus sp. = settings: reproduction developmental; body weight
# Coturnix japonica = settings: reproduction developmental
# Oncorhynchus mykiss = settings: acute; duration: 96 hours; mortality
structure (smiles),measurement,setting,value
Clc1ccc(C2(Cn3cncn3)CC(Br)CO2)c(Cl)c1 (stereo not given) [Bromuconazole],LEL,Typhlodromus pyri,260 g/ha
same,LC50,Colinus virginianus; diet,> 778 mg/kg-day
same,LD50,Colinus virginianus,> 2150 mg/kg-day
same,LD50,Apis mellifera,> 100 µg/piece
same,LD50,"Anas platyrhynchos; acute, unspecified",> 2150 mg/kg-day
same,LC50,"Anas platyrhynchos; short-term, feed",> 684 mg/kg-day
same,LD50,"Rattus norvegicus; acute, oral, F, mortality",328 mg/kg-day
same,NOAEL,"Rattus norvegicus; chronic, duration: 2 years, oral, diet, histopathology: nonneoplastic",0.88 mg/kg-day
same,NOEL,"Rattus norvegicus; chronic, histopathology: nonneoplastic",13.8 mg/kg-day
same,NOAEL,"Rattus norvegicus; developmental, development",10 mg/kg-day
same,NOEL,"Rattus norvegicus; reproduction developmental, body weight",1.3 mg/kg-day
same,NOAEL,"Canidae; chronic, duration: 1 years",2.5 mg/kg-day
same,NOAEL,"Canidae; subchronic, duration: 90 days",2.5 mg/kg-day
same,NOEC,Pimephales promelas,0.065 mg/L
same,LC50,"Tagia sp.; acute, duration: 14 days, mortality",> 1000 mg/kg
same,NOEC,"Tagia sp.; chronic/long-term, duration: 56 days",37.2 mg/kg
same,NOEC,Daphnia magna,0.02 mg/L
same,NOEL,Oryctolagus sp.,12.5 mg/kg-day
same,NOEC,Coturnix japonica,26.5 mg/kg-day
same,LC50,Oncorhynchus mykiss,1.7 µg/mL
